Earlier results as cited in patent US20100152180A1, “4-oxo-4,5-dihydropyrrolo[1,2-A)quinoxaline derivatives as inhibitors of poly(ADP-ribose) polymerase (PARP)” (priority 2006, published 2010).

Tested on: ischemia and reperfusion of the heart or skeletal muscle
Details: rabbits

SMILES | reduction in infarct size (single injection 1 mg/kg) | reduction in infarct size in the heart (single injection 10 mg/kg, one minute before occlusion or one minute before reperfusion)
Oc1cccc2c(O)nccc12 [1,5-dihydroxyisoquinoline] | 38-48% | –
NC(=O)c1cccc(N)c1 [3-amino-benzamide] | – | 32-42%
